Columns and labels:
NA transporter = test: Inhibition of noradrenalin uptake in synaptosomes; assay type: biochemical
[1] = tested on: batrachotoxin (BTX) binding site of the sodium channel; test: Affinity to the batrachotoxin (BTX) binding site of the sodium channel; conditions: rat cerebrocortex synaptosomes, [3H]-batrachotoxinin A20 α-benzoate 10 nM; test concentration not given
5-HT transporter = biological target: T1, 5-HT transporter (Rattus norvegicus, UniProt P31652); test: Inhibition of 5-HT uptake in synaptosomes; assay type: biochemical; conditions: for inhibition at 1 µM: read-out: Uptake_5-HT, rat, 1 μM, % inhibition
T1 construct: from tissue; host or cells: rat brain synaptosomes (marrow/medulla and pons), P2 fraction
T1 sequence (P31652 whole entry): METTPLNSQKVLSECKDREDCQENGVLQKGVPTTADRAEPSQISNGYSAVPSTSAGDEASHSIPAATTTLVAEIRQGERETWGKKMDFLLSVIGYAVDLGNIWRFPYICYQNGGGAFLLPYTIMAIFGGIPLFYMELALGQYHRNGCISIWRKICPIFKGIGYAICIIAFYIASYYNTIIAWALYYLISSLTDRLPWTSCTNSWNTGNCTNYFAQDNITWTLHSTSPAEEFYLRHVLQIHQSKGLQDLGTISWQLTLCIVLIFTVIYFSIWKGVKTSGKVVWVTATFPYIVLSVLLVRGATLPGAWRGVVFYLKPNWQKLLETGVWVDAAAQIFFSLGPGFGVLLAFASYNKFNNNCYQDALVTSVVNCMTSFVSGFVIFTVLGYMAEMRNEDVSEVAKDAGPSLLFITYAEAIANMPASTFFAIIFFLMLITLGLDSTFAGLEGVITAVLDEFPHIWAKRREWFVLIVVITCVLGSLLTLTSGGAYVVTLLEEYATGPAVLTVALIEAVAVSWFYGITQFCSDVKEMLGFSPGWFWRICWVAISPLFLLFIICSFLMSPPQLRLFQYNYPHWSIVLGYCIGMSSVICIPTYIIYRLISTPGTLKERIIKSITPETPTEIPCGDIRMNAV

Molecule | Uptake (NA), rat, 10 μM, % inhibition (NA transporter) [%] | BTX Inhibition [1] | Uptake_5-HT, rat, 1 μM, % inhibition (5-HT transporter) [%] | inhibition at 1 µM (5-HT transporter) [%]
CN(C)S(=O)(=O)N1CCC2(CC1)NCC(=O)N2Cc1ccccc1 [Example 9, 1-Benzyl-2-oxo-1,4,8-triazaspiro[4,5]decan-8-sulfonic acid dimethylamide] | 40 |  |  | 
CC(C)C1NC2(CCN(C(=S)Nc3cc(Cl)ccc3Cl)CC2)N(Cc2ccccc2)C1=O (stereo not shown) [Example 136, 1-Benzyl-3-isopropyl-2-oxo-1,4,8-triazaspiro[4,5]decan-8-thiocarboxylic acid (2,5-dichlorobenzol)amide] |  | 66 | 44 | 
CSCCC1NC2(CCN(C(=S)Nc3ccc(C(C)C)cc3)CC2)N(Cc2ccccc2)C1=O (stereo not shown) [Example 139, 1-Benzyl-3-(2-methylsulfanylethyl)-2-oxo-1,4,8-triazaspiro[4,5]decan-8-thiocarboxylic acid (4-isopropylbenzol)amide] |  | 97 | 63 | 
CSCCC1NC2(CCN(C(=S)Nc3cc(F)ccc3F)CC2)N(Cc2ccccc2)C1=O (stereo not shown) [Example 140, 1-Benzyl-3-(2-methylsulfanylethyl)-2-oxo-1,4,8-triazaspiro[4,5]decan-8-thiocarboxylic acid (2,5-difluorobenzol)amide] |  | 53 | 59 | 
CCCCN1C(=O)C(C(C)C)NC12CCN(C(=S)Nc1ccccc1C(=O)OC)CC2 (stereo not shown) [Example 143, Methyl 2-[(1-butyl-3-isopropyl-2-oxo-1,4,8-triazaspiro[4,5]decan-8-carbothioyl)amino]-benzoate] |  | 51 |  | 32
CCOC(=O)CN1C(=O)C(Cc2ccccc2)NC12CCN(C(=S)Nc1ccccc1C(=O)OC)CC2 (stereo not shown) [Example 145, Methyl 2-[(3-benzyl-1-ethoxycarbonylmethyl-2-oxo-1,4,8-triazaspiro[4,5]decan-8-carbothioyl)amino]-benzoate] |  | 69 |  | 67
CCOC(=O)NC(=S)N1CCC2(CC1)NC(CCSC)C(=O)N2Cc1ccccc1C#N (stereo not shown) [Example 146, Ethyl[1-(2-cyanobenzyl)-3-(2-methylsulfanylethyl)-2-oxo-1,4,8-triazaspiro[4,5]decan-8-carbothioyl]-carbamate] |  | 30 |  | 30
CSCCC1NC2(CCN(C(=S)NC(C)c3ccccc3)CC2)N(Cc2ccc3ccccc3c2)C1=O (stereo not shown) [Example 148, 3-(2-Methylsulfanylethyl)-1-naphthalin-2-ylmethyl-2-oxo-1,4,8-triazaspiro[4,5]decan-8-thiocarboxylic acid (1-benzol-ethyl)amide] |  | 88 | 49 | 
CC(C)C1NC2(CCN(C(=S)Nc3ccccc3)CC2)N(Cc2ccccc2)C1=O (stereo not shown) [Example 156, 1-Benzyl-3-isopropyl-2-oxo-1,4,8-triazaspiro[4,5]decan-8-thiocarboxylic acid benzolamide] | 33 |  |  | 
CC(C)C1NC2(CCN(C(=S)Nc3cc(Cl)cc(Cl)c3)CC2)N(Cc2ccccc2)C1=O (stereo not shown) [Example 177, 1-Benzyl-3-isopropyl-2-oxo-1,4,8-triazaspiro[4,5]decan-8-thiocarboxylic acid (3,5-dichlorobenzol)amide] |  | 46 | 36 | 
CSCCC1NC2(CCN(C(=S)Nc3ccccc3C)CC2)N(Cc2ccc(F)cc2)C1=O (stereo not shown) [Example 186, 1-(4-Fluorobenzyl)-3-(2-methylsulfanylethyl)-2-oxo-1,4,8-triazaspiro[4,5]decan-8-thiocarboxylic acid o-tolylamide] |  | 52 |  | 55
CSCCC1NC2(CCN(C(=S)Nc3cccc(C#N)c3)CC2)N(Cc2ccc(F)cc2)C1=O (stereo not shown) [Example 192, 1-(4-Fluorobenzyl)-3-(2-methylsulfanylethyl)-2-oxo-1,4,8-triazaspiro[4,5]decan-8-thiocarboxylic acid (3-cyanobenzol)amide] |  | 35 | 38 | 
CCOc1ccc(NC(=S)N2CCC3(CC2)NC(CCSC)C(=O)N3Cc2ccc(F)cc2)cc1 (stereo not shown) [Example 200, 1-(4-Fluorobenzyl)-3-(2-methylsulfanylethyl)-2-oxo-1,4,8-triazaspiro[4,5]decan-8-thiocarboxylic acid (4-ethoxy-benzol)amide] |  | 30 | 30 | 
CC(=O)c1cccc(NC(=S)N2CCC3(CC2)NC(Cc2ccccc2)C(=O)N3Cc2ccccc2F)c1 (stereo not shown) [Example 201, 3-Benzyl-1-(2-fluorobenzyl)-2-oxo-1,4,8-triazaspiro[4,5]decan-8-thiocarboxylic acid (3-acetylbenzol)amide] |  | 63 | 54 | 
CN1C(=O)C(Cc2ccccc2)NC12CCN(C(=O)NC1CCCCC1)CC2 (stereo not shown) [Example 202, 3-Benzyl-1-methyl-2-oxo-1,4,8-triazaspiro[4,5]decan-8-carboxylic acid cyclohexylamide] |  | 56 |  | 34
CCCCN1C(=O)C(CCSC)NC12CCN(C(=O)Nc1ccccc1)CC2 (stereo not shown) [Example 207, 1-Butyl-3-(2-methylsulfanylethyl)-2-oxo-1,4,8-triazaspiro[4,5]decan-8-carboxylic acid benzolamide] |  | 35 | 39 | 
CCCCN1C(=O)C(CCSC)NC12CCN(C(=O)Nc1ccc(OCC)cc1)CC2 (stereo not shown) [Example 221, 1-Butyl-3-(2-methylsulfanylethyl)-2-oxo-1,4,8-triazaspiro[4,5]decan-8-carboxylic acid (4-ethoxy-benzol)amide] |  | 44 | 47 | 
CCCCN1C(=O)C(CCSC)NC12CCN(C(=O)Nc1ccc(Cl)c(C(F)(F)F)c1)CC2 (stereo not shown) [Example 227, 1-Butyl-3-(2-methylsulfanylethyl)-2-oxo-1,4,8-triazaspiro[4,5]decan-8-carboxylic acid (4-chloro-3-trifluoromethylbenzol)amide] |  | 85 | 58 | 
O=C(Nc1cc(F)ccc1F)N1CCC2(CC1)NC(Cc1ccccc1)C(=O)N2Cc1ccccc1F (stereo not shown) [Example 230, 3-Benzyl-1-(2-fluorobenzyl)-2-oxo-1,4,8-triazaspiro[4,5]decan-8-carboxylic acid (2,5-difluorobenzol)amide] |  | 78 | 63 | 
O=C(NCc1ccc(Cl)c(Cl)c1)N1CCC2(CC1)NC(Cc1ccccc1)C(=O)N2Cc1ccccc1F (stereo not shown) [Example 233, 3-Benzyl-1-(2-fluorobenzyl)-2-oxo-1,4,8-triazaspiro[4,5]decan-8-carboxylic acid 3,4-dichlorobenzylamide] |  | 85 |  | 44
CSCCC1NC2(CCN(C(=O)Nc3cccc(C(C)=O)c3)CC2)N(Cc2ccccc2C#N)C1=O (stereo not shown) [Example 234, 1-(2-Cyanobenzyl)-3-(2-methylsulfanylethyl)-2-oxo-1,4,8-triazaspiro[4,5]decan-8-carboxylic acid (3-acetylbenzol)amide] |  | 31 | 45 | 
CCOC(=O)c1ccc(NC(=O)N2CCC3(CC2)NC(Cc2ccccc2)C(=O)N3Cc2ccccc2F)cc1 (stereo not shown) [Example 235, Ethyl 4-{[3-benzyl-1-(2-fluorobenzyl)-2-oxo-1,4,8-triazaspiro[4,5]decan-8-carbonyl]-amino}-benzoate] |  | 77 |  | 65
CSCCC1NC2(CCN(C(=O)Nc3ccc(OC(F)(F)F)cc3)CC2)N(Cc2ccc(F)cc2)C1=O (stereo not shown) [Example 237, 1-(4-Fluorobenzyl)-3-(2-methylsulfanylethyl)-2-oxo-1,4,8-triazaspiro[4,5]decan-8-carboxylic acid (4-trifluoromethoxy-benzol)amide] |  | 87 | 39 | 
O=C(NC1CCCCC1)N1CCC2(CC1)NC(Cc1ccccc1)C(=O)N2Cc1ccccc1F (stereo not shown) [Example 238, 3-Benzyl-1-(2-fluorobenzyl)-2-oxo-1,4,8-triazaspiro[4,5]decan-8-carboxylic acid cyclohexylamide] |  | 73 |  | 43
CSCCC1NC2(CCN(C(=O)NCCc3ccccc3)CC2)N(Cc2ccc(F)cc2)C1=O (stereo not shown) [Example 239, 1-(4-Fluorobenzyl)-3-(2-methylsulfanylethyl)-2-oxo-1,4,8-triazaspiro[4,5]decan-8-carboxylic acid phenethylamide] |  | 69 |  | 36
CSCCC1NC2(CCN(C(=O)Nc3cccc(F)c3)CC2)N(Cc2ccc3ccccc3c2)C1=O (stereo not shown) [Example 240, 3-(2-Methylsulfanylethyl)-1-naphthalin-2-ylmethyl-2-oxo-1,4,8-triazaspiro[4,5]decan-8-carboxylic acid (3-fluorobenzol)amide] |  | 78 | 63 | 
COC(=O)c1ccc(CN2C(=O)C(C(C)C)NC23CCN(C(=O)Nc2ccc(Cl)c(C(F)(F)F)c2)CC3)cc1 (stereo not shown) [Example 241, Methyl 4-[8-(4-chloro-3-trifluoromethylbenzolcarbamoyl)-3-isopropyl-2-oxo-1,4,8-triazaspiro[4,5]dec-1-ylmethyl]-benzoate] |  | 78 | 31 | 
COc1ccc(OC)c(NC(=O)N2CCC3(CC2)NC(CCSC)C(=O)N3Cc2cccc(C#N)c2)c1 (stereo not shown) [Example 242, 1-(3-Cyanobenzyl)-3-(2-methylsulfanylethyl)-2-oxo-1,4,8-triazaspiro[4,5]decan-8-carboxylic acid (2,5-dimethoxy-benzol)amide] |  | 46 | 30 | 
CCOc1ccc(NC(=O)N2CCC3(CC2)NC(CCSC)C(=O)N3Cc2ccc(F)cc2)cc1 (stereo not shown) [Example 243, 1-(4-Fluorobenzyl)-3-(2-methylsulfanylethyl)-2-oxo-1,4,8-triazaspiro[4,5]decan-8-carboxylic acid (4-ethoxy-benzol)amide] |  | 48 | 40 | 
Ethyl[3-b-8-(3-fluorobenzolcarbamoyl)-2-oxo-1,4,8-triazaspiro[4,5]dec-1-yl]-acetate [Example 245] |  | 31 | 51 | 

— patent US7560468B2, “Substituted 1,4,8-triazaspiro[4,5]decan-2-one compounds” (Gruenenthal GmbH, priority 2004, dated 2009)
